Values joined by “and” are separate entries in the source; they are usually repeats but may differ in a detail not shown here. Equal values may be shown once. Read-outs that look alike come from different tables or passages of the source. Marks after values point to notes of the source that are not given here.
Columns and labels:
[1] = system: pregnant crossbred female swine; test: Example 2: induction of farrowing in pregnant gilts, oral CP161,258 (two doses or single dose) or intramuscular porcine relaxin; assay type: in vivo; conditions: for Hr, Dose d 112 To 1st pig ± SD / Hr, Dose d 113 To 1st pig ± SD: mean ± SD; for Piglet data: Born alive / Piglet data: Mummies / Piglet data: Stillborn: mean
Experimental: Animals. […] This BW was used to calculate the amount of test article to administer (T2 and T3).
Randomization of animals. Animals were ranked according to expected farrowing date and then randomly assigned to treatment within blocks of 4 animals each.
Test article administration. […] For treatment groups T2 and T3, test article was diluted (a suspension) to a concentration of 25 mg/ml in 50% propylene glycol and stored refrigerated (2-8° C.).
For treatment groups T2 and T3, animals were snared and test article was administered orally using a 60 ml syringe. […] One container of approximately 440 ml was mixed and used within each week of the 3 wk study. Each animal assigned to T2 or T3 also received approximately 30 ml of tap water to insure that test article was swallowed.
Porcine relaxin was diluted to a concentration of 1200 U/ml in sterile physiological saline on the first day of use. Diluted porcine relaxin was stored in a locked refrigerator and removed only when injections took place. Relaxin (1 ml-T4) was administered intramuscularly in the lower part of the ham of either leg with an 18-gauge, 1.5″ long needle attached to a 3 ml syringe.
Administration of test articles occurred between 7:30 am and 8:30 am on almost all days of the study.
Piglets. Response variables measured in this study were: hours from the 1st treatment to the birth of the 1st pig, number of piglets that were alive at birth (born alive), stillborn (normal appearance term piglet, but dead at time of birth), and mummies (smaller than littermates, decayed at birth). Animals were not processed (no iron shots, no clipping of needle teeth, no individual identification), but umbilical cords were clipped to […]. length if animals could not be euthanized within 2 days after birth.
Data/Analyses. […] Data were analyzed using a mixed model analysis with block as a random effect and treatment as a fixed effect (proc mixed, SAS).

progesterone in plasma = test: Example 1: progesterone in plasma by RIA around farrowing; assay type: in vivo, swine; conditions: for Mean concentration of progesterone in plasma: n in parentheses; for p4 = concentration of progesterone in plasma: trt 2, individual animals
Experimental: Blood samples. Blood samples were collected from all animals (including T1 and T2) prior to administration of test article at 7:30 am on days 112 and 113. In addition, a PM blood sample was collected beginning at approximately 1:30 pm on days 112 and 113. Additional blood samples were collected at 7:30 am and 1:30 pm on subsequent days (>or =day 114). The final blood sample was collected after farrowing was complete. All blood samples (7 ml) were collected using sodium heparin vacutainers. Samples were refrigerated, centrifuged, and plasma was separated within 2 hr after collection. One aliquot of each sample was sent to Cornell Veterinary Diagnostic Lab for progesterone analyses by RIA.
(§1) Data/Analyses. Response variables measured in this study were: hours from the time of the 1st dosing on day 112 post-breeding to birth of the 1st pig, hours from the 2nd dosing on day 113 to birth of the 1st pig, number of piglets that were alive at birth (born alive), stillborn (normal appearance term piglet, but dead at time of birth), and mummies (smaller than littermates, decayed at birth). The variables were analyzed using a mixed model analysis (proc mixed, SAS) with block as a random effect and treatment as a fixed effect. Concentrations of progesterone were analyzed using a repeated measure mixed model analysis, with block as a random effect and treatment as a fixed effect.

swine = conditions: cited from earlier work
[2] = system: pregnant crossbred female swine; assay type: in vivo
Text: The objectives of this study were to determine the effects of administration of the progesterone receptor antagonist CP161,258 on the concentration of progesterone, the time interval from the 1st administration of test article on day 112 to birth of the 1st pig, the time interval from the 2nd administration of test article to birth of the 1st pig, and the status of piglets at birth (alive, stillborn, mummies).
Animals. Twenty pregnant crossbred female swine were purchased and delivered to Terre Haute on approximately day 102-107 of gestation. These animals were placed in farrowing crates in building 608W. Animals assigned to T2 averaged 195 kg BW. Animals (sows and piglets) were euthanized within 48 hr post-farrowing or on day 116 post-mating. There was no estimate of pre-weaning mortality in this study.
Randomization of animals. Animals were ranked according to expected farrowing date and randomly assigned to treatment within blocks of 2 animals each.
Test article administration. […] For treatment group T2, test article was diluted to a concentration of 25 mg/ml in 50% propylene glycol and water, and stored refrigerated (2-8° C.). Test article was administered orally after the morning blood sample was collected. The volume administered was approximately 30 ml to deliver a dosage of 4 mg/kg BW. Animals were administered with approximately 30 ml of water following administration of test article.
Early/late farrowing. […] If animals farrowed before day 114, the final blood sample was collected after farrowing was complete.
as §1

sheep = conditions: 5 or 10 mg/kg BW; cited from earlier work
[3] = T2: 4 mg/kg BW CP161,258 oral D 112 + 113, counted from (day 112)
[4] = T2: 4 mg/kg BW oral D 112 + 113
[5] = T3: 8 mg/kg BW CP161,258 oral D 113, counted from (day 113)
[6] = Treatment 2: 4 mg/kg oral days 112 and 113, individual animals, 4 mg/kg
[7] = Treatment 3: 8 mg/kg oral day 113, individual animals, 8 mg/kg
[8] = 4 mg/kg BW orally days 112 and 113
[9] = T2: 4 mg/kg BW CP161,258 orally D 112 + 113, mean ± SD, n in parentheses
[10] = T2: 4 mg/kg BW orally D 112 + 113, mean per litter

Structure (SMILES): CC#CC1(O)CCC2C3CCC4=CC(=O)CCC4=C3C(c3ccc(N(C)C)cc3)CC21C (centres unmarked) [CP161,258, 11-(4-Dimethylamino-phenyl)-17-hydroxy-13-methyl-17-prop-1-ynyl-1,2,6,7,8,11,12,13,14,15,16,17-dodecahydro-cyclopenta[a]phenanthren-3-one]
- Hr, Dose d 112 To 1st pig ± SD [1, 3]: 45 ± 26^a (13) Hr
- Hr, Dose d 113 To 1st pig ± SD [1, 3]: 45 ± 26^b (13) Hr
- Piglet data: Born alive [1, 4]: 9.2 (13)
- Piglet data: Mummies [1, 4]: 0.4* (13)
- Piglet data: Stillborn [1, 4]: 0.7 (13)
- number of stillborns lower compared with T1 non-medicated controls ([1]; T2: 4 mg/kg days 112 and 113, numerically, not statistically): 0.4 pigs/litter
- percent of animals that started farrowing on day 114 ([1]; T2: 4 mg/kg on days 112 and 113 (4/13)): 31%
- percent of animals that started farrowing on day 113 ([1]; T2: 4 mg/kg on days 112 and 113 (7/13)): Fifty-four
- Reason (animals with incomplete data) ([1]; T2 CP161,258 D 112 + 113, individual animals): Dystocia
- Hr, Dose d 112 To 1st pig ± SD [1, 5]: 33 ± 20 (13) Hr
- Hr, Dose d 113 To 1st pig ± SD [1, 5]: 33 ± 20^c (13) Hr
- percent of animals that started farrowing on day 114 ([1]; T3: 8 mg/kg BW on day 113 (11/13)): 85%
- Piglet data: Born alive ([1]; T3: 8 mg/kg BW oral D 113): 8.6 (13)
- Piglet data: Mummies ([1]; T3: 8 mg/kg BW oral D 113): 0.2 (13)
- Piglet data: Stillborn ([1]; T3: 8 mg/kg BW oral D 113): 0.5 (13)
- number of stillborns reduced compared with T1 non-medicated controls ([1]; T3: single dose 8 mg/kg BW day 113, numerically, not statistically): 0.6 pigs/litter
- Born Alive [1, 6]: 8 and 13 (2×) and 10 (3×) and 9 (2×) and 7 and 2 and 12 and 6 and 11
- Hr, 1st treatment to 1st pig [1, 6]: 22.5 h and 24.5 h and 26.4 h and 28.6 h and 28.9 h and 32.1 h and 33.6 h and 45.7 h and 46 h and 46.3 h and 49.1 h and 96.3 h and 101 h
- Mummies [1, 6]: 0 (9×) and 2 and 1 (3×)
- Still-born [1, 6]: 1 (9×) and 0 (4×)
- Born Alive [1, 7]: 6 (3×) and 13 and 12 and 10 (3×) and 7 and 14 and 11 and 4 and 3
- Hr, 1st treatment to 1st pig [1, 7]: 49 h and 96 h and 21.2 h and 23.7 h and 24.4 h and 24.5 h and 24.7 h and 25.1 h and 25.2 h and 25.3 h and 26.3 h and 27.1 h and 34.4 h and 93.8 h
- Mummies [1, 7]: 0 (10×) and 1 (3×)
- Still-born [1, 7]: 0 (8×) and 2 (2×) and 1 (3×)
- percent of animals that farrowed 24 to 27 hr post-dosing ([1]; single dose of 8 mg/kg BW): 70%
- percent of animals that farrowed between 21 and 35 hr after dosing ([1]; single dose of 8 mg/kg BW): 85%
- concentrations of progesterone in plasma in the −24 hr period preceding parturition, compared to non-medicated controls (progesterone in plasma; 4 mg/kg orally days 112 and 113): remained higher
- Mean concentration of progesterone in plasma (progesterone in plasma; Sample time 0 (immediately before farrowing), T2): 7.5 (9) ng/ml
- Mean concentration of progesterone in plasma (progesterone in plasma; Sample time 1 (within 12 hr after farrowing was complete), T2): 1.5 (9) ng/ml
- Mean concentration of progesterone in plasma (progesterone in plasma; Sample time −1 relative to farrowing, T2): 12.3* (9) ng/ml
- Mean concentration of progesterone in plasma (progesterone in plasma; Sample time −2 relative to farrowing, T2): 14.0* (8) ng/ml
- Mean concentration of progesterone in plasma (progesterone in plasma; Sample time −3 relative to farrowing, T2): 14.5 (5) ng/ml
- Mean concentration of progesterone in plasma (progesterone in plasma; Sample time −4 relative to farrowing, T2 4 mg/kg orally days 112 and 113): 14.2 (2) ng/ml
- p4 = concentration of progesterone in plasma (progesterone in plasma; time 0 (immediately before farrowing)): 5.76 ng/mL and 8.12 ng/mL and 5.62 ng/mL and 9.45 ng/mL and 13.37 ng/mL and 4.95 ng/mL and 9.41 ng/mL and 5.64 ng/mL and 7.17 ng/mL
- p4 = concentration of progesterone in plasma (progesterone in plasma; time 1 (within 12 hr after farrowing was complete)): 2.05 ng/mL and 1.34 ng/mL and 0.82 ng/mL and 1.62 ng/mL and 1.95 ng/mL and 4.50 ng/mL and 1.64 ng/mL and 1.11 ng/mL and 0.79 ng/mL
- p4 = concentration of progesterone in plasma (progesterone in plasma; time −1): 8.27 ng/mL and 13.76 ng/mL and 13.88 ng/mL and 15.46 ng/mL and 18.89 ng/mL and 7.63 ng/mL and 8.18 ng/mL and 10.70 ng/mL and 16.70 ng/mL
- p4 = concentration of progesterone in plasma (progesterone in plasma; time −2): 12.42 ng/mL and 17.27 ng/mL and 13.89 ng/mL and 15.47 ng/mL and 13.96 ng/mL and 15.17 ng/mL and 10.92 ng/mL and 17.76 ng/mL
- p4 = concentration of progesterone in plasma (progesterone in plasma; time −3): 14.93 ng/mL and 13.88 ng/mL and 15.28 ng/mL and 14.66 ng/mL and 16.68 ng/mL
- p4 = concentration of progesterone in plasma (progesterone in plasma; time −4): 15.25 ng/mL and 13.49 ng/mL
- induction of parturition (swine; 4 mg/kg body weight on days 111 and 112 post-breeding): effectively induced parturition
- time interval from the 1st administration to the onset of parturition, relative to non-medicated controls ([2]; 4 mg/kg BW days 112 and 113 of gestation): half
- number of piglets born dead (stillborns), mean [2, 8]: 0.1 pigs/litter
- percent of animals that farrowed the day following the first treatment (day 113, within 1 day) [2, 8]: 44% and 45%
- percent of animals with onset of parturition within 2 days [2, 8]: 100%
- percent of treated animals that farrowed on day 114 [2, 8]: 56%
- Hr, 1st dose d 112 To 1st pig ± SD [2, 9]: 36 ± 15 (9) Hr
- Hr, 2nd dose d 113 To 1st pig ± SD [2, 9]: 36 ± 15 (9) Hr
- Piglet data: Born alive [2, 10]: 8.9 (9)
- Piglet data: Mummies [2, 10]: 0 (9)
- Piglet data: Stillborn [2, 10]: 0.1* (9)
- Mummified fetuses ([2]; T2: 4 mg/kg orally days 112 and 113, individual animals): 0

Structure (SMILES): C[C@]1(O)CC[C@H]2[C@@H]3CC[C@@]45O[C@]4(C)C(O)=C(C#N)C[C@]5(C)[C@H]3CC[C@@]21C [Epostane]
- interval from oral administration to birth of the first pig (swine; oral, 5 or 10 mg/kg BW): about 34 hr
- interval from oral administration to birth of lambs (sheep): 33 h
